This is an account of results in publication PMC10238102, “Anti-SARS-CoV-2 Activity of Adamantanes In Vitro and in Animal Models of Infection” (COVID, 2022).

The test system of data set [1] is SARS-CoV-2 omicron variant B.1.1.529. Kind of data set: microbe, parasite or virus in culture. The format is cell-based. To be noted: Severe acute respiratory syndrome coronavirus 2, Vero C1008, 48 h.
The conditions of data set [2]: mouse, in vivo.

Regarding `NC12CC3CC(CC(C3)C1)C2` [amantadine], in data set [1], the IC50 (in general, the point on the concentration scale where inhibition reaches its midpoint) is 106 µM. The “weight loss at 3 DPI compared to water control” value in data set [2] is reported as “significant amount of weight loss”. For `CC(N)C12CC3CC(CC(C3)C1)C2` (stereo not shown) [rimantadine], in data set [1], the IC50 stood at 17.8 µM. Still for that read-out and setting: as for `CCC(CC)COC(=O)[C@H](C)N[P@](=O)(OC[C@H]1O[C@@](C#N)(c2ccc3c(N)ncnn23)[C@H](O)[C@@H]1O)Oc1ccccc1` [remdesivir], the figure is 0.89 µM.
